Like-named read-outs stand apart in the source and are kept apart here.
Key:
[1] = tested on: AhR-mediated cyp1a1 expression; assay: AhR-mediated cyp1a1 expression in epithelial colonic organoids
Description: In FIG. 7A, the metabolites (3-indole acetic acid, 3-methylindole, indole, indoleacrylate, 3-indole butyric acid, and indolepropionic acid, IPA) were added at three different concentrations (50, 100, and 200 μM), with increasing concentrations from right to left. Untreated epithelial organoids (Untd) were used as a negative control. In FIG. 7B, supernatants were collected from cultures containing different bacteria (Clostridium sporogenes 1, Clostridium sporogenes 2, Peptostreptococcus stomatis, Clostridium glycolicum, Bacteroides sp. 4 1 36) and were provided to the epithelial organoids at two different concentrations (5% and 2% final concentration), with the left bar corresponding to the higher concentration. The SCFAs and tryptophan metabolites present in each supernatant (from FIGS. 17 and 18) are indicated. IPA: indolepropionic acid; IAcryl: Indole acrylate; 3Mind: 3-methylindole; I3Carb: indole-3-carbinol; C3: propionate; C4: butyrate; C5: valerate; C6: hexanoate; BCFA: branch chain fatty acids.
AhR activation is reportedly associated with strengthening of the intestinal epithelial barrier and mucosal homeostasis in the intestine by inducing broad changes in gene expression. […] An increase in Cyp1a1 expression is considered to be a specific measure of AhR-mediated gene expression.

[2] = tested on: TNF-α-driven IL-8 secretion by HT29 epithelial cells; assay: Anti-inflammatory assay in IECs (TNF-α-driven IL-8 secretion); type: cell-based, human; conditions: 1 hour pre-treatment
[3] = tested on: primary human colon epithelial cell monolayer; assay: Primary epithelial cell monolayer barrier integrity assay (IFN-γ, FITC-dextran); conditions: 5 mM
Description: The assays were performed using a primary epithelial cell monolayer barrier integrity assay. […] The addition of interferon-gamma (IFN-γ) disrupts the tight junctions of the epithelial monolayer and induces apoptosis of epithelial cells. The leakiness of the membrane can be assessed by adding FITC-dextran to the apical side of the apparatus and measuring how rapidly it can pass to the basolateral compartment. A leaky monolayer will allow FITC-dextran to the basal side of the apparatus more quickly than a monolayer with an intact monolayer.
Briefly, the barrier integrity assay was conducted as follows. Primary human colon organoid cultures established from isolated colon crypts were grown and expanded in Matrigel® (Corning) and 50% L-cell conditioned medium containing Wnt3a, R-spondin 3 and Noggin (L-WRN) as described by VanDussen et al. containing 10 uM Y-27632 and 10 uM SB43152 (Gut 64:911-920, 2015). […] After the 48-hour incubation, colonic epithelial monolayer permeability was assessed by adding 10 μL of 10 ng/ml FITC-Dextran (4 kDa, Sigma) to the apical interface, the organoids were incubated for 1 hour and then 100 μL of medium was collected from the basolateral compartment of each transwell and transferred to a 96 well plate for fluorescence detection.

[4] = tested on: clinical remission of ulcerative colitis; type: in vivo, human; conditions: UC patients treated with HHSP
[5] = tested on: HDAC enzymes (HeLa nuclear extract); assay: HDAC inhibition assay (HDAC-Glo I/II, HeLa nuclear extract); type: biochemical; conditions: for HDAC Inhibition in any C source (25/18% cutoff): single strain supernatants, PY medium with one of seven C sources
[6] = GC-MS of SCFAs, MCFAs, BCFAs and tryptophan metabolites in bacterial supernatants; conditions: single strain supernatants
Text: FIG. 18 provides a table listing bacterial species and the short chain fatty acids (SCFAs), medium chain fatty acids (MCFAs), and branched chain fatty acids (BCFAs) produced by each of the species. […] The limit of detection for each of the fatty acids is provided in the row labeled “Limit of Detection (LOD).” The SCFAs measured included: acetic acid, propanoic acid, and butanoic acid. The MCFAs measured included: pentanoic acid, hexanoic acid, heptanoic acid. The BCFAs measured included: 2-methyl-propanopic acid, 3-methyl-butanoic acid, and 4-methyl-pentaoic acid.
FIG. 19 provides a table listing bacterial species and tryptophan metabolites produced by the species. […] The limit of detection for each of the fatty acids is provided in the row labeled “Limit of Detection (LOD).” The tryptophan metabolites measured included: indole, 3-methylindole, indol-3-propanoic acid, indole-3-butyric acid, 3-indoleacrylic acid, tryptamine, indole-3-acetic acid, 3-indole-glycoxylic acid, 2-picolinic acid, and 5-hydroxytryptamine.
As described supra, certain tryptophan (Trp) metabolites were associated with remission in patients treated with an HHSP. […] The presence of the tryptophan metabolites was determined using a colorimetric assay for detection of indolic compounds (Indole Reagent, Anaerob Systems). […]

[7] = intestinal epithelial organoids

Compound | HDAC cluster assignment [5] | HDAC Inhibition in any C source (25/18% cutoff) [5] | also measured
O=C(O)Cc1c[nH]c2ccccc12 [3-indole acetic acid] | – | – | AhR-mediated cyp1a1 expression [1, 7]: induced AhR-mediated cyp1a1 expression
Cc1c[nH]c2ccccc12 [3-methylindole] | – | – | AhR-mediated cyp1a1 expression ([1]; human): induced AhR-mediated cyp1a1 expression
CC(=O)O [acetate] | – | – | TNF-α-dependent IL-8 secretion by IECs [2]: reduced levels of TNF-α-dependent IL-8 secretion
CCCC(=O)O [butyrate] | – | – | decrease of permeability [3]: 50%
c1ccc2[nH]ccc2c1 [indole] | – | – | AhR-mediated cyp1a1 expression [1, 7]: induced AhR-mediated cyp1a1 expression
O=C(O)/C=C/c1c[nH]c2ccccc12 [indoleacrylate] | – | – | AhR-mediated cyp1a1 expression [1, 7]: induced AhR-mediated cyp1a1 expression
CCC(=O)O [propionate] | – | – | TNF-α-dependent IL-8 secretion by IECs [2]: reduced levels of TNF-α-dependent IL-8 secretion
Clostridium bolteae | – | – | Associated Clinical Outcome [4]: Remitter
Clostridium clostridioforme | 6 | 1 (If a strain exhibits HDACi activity of at least 0.25 in any nutrient, or 0.18 in fucose, it is considered to have HDACi activity and it is marked with “1”) | –
Clostridium disporicum | 0 | 1 (If a strain exhibits HDACi activity of at least 0.25 in any nutrient, or 0.18 in fucose, it is considered to have HDACi activity and it is marked with “1”) | –
Clostridium glycolicum | – | – | hexanoate production [6]: Hexanoate producing
Clostridium mayombei | 2 | 1 (If a strain exhibits HDACi activity of at least 0.25 in any nutrient, or 0.18 in fucose, it is considered to have HDACi activity and it is marked with “1”) | –
Clostridium sp 7 2 43FAA | – | 1 (If a strain exhibits HDACi activity of at least 0.25 in any nutrient, or 0.18 in fucose, it is considered to have HDACi activity and it is marked with “1”) | HDAC cluster assignment ([5]; pattern of HDAC inhibition across nutrient sources): 5
Clostridium symbiosum | – | – | Associated Clinical Outcome [4]: Remitter
Clostridium tertium | 5 | 1 (If a strain exhibits HDACi activity of at least 0.25 in any nutrient, or 0.18 in fucose, it is considered to have HDACi activity and it is marked with “1”) | –
Parabacteroides distasonis | 3 | 1 (If a strain exhibits HDACi activity of at least 0.25 in any nutrient, or 0.18 in fucose, it is considered to have HDACi activity and it is marked with “1”) | –
